Results published in patent US4473577A, “2-Thiazolamine derivatives, process for preparing same, and pharmaceutical compositions comprising same” (Mitsui Toatsu Chemicals, Incorporated, priority 1982, dated 1984).
Where a name gives a salt, the structure may show the parent alone. Read-outs that look alike come from different tables or passages of the source.

Columns and labels:
[1] = system: adjuvant arthritis induced in rats by injection of a tubercle bacillus adjuvant; type: in vivo, male rats of the SD strain
[2] = system: delayed hypersensitivity induced in mice by picryl chloride; assay: Augmentation test of delayed hypersensitivity (picryl chloride, ear thickness); type: in vivo, male mice of the ICR strain; conditions: mouse ICR, 50 mg per kg orally, simultaneously with sensitization; ear thickness before and 24 hours after challenge (7 days after sensitization); average of 16 measurements; * = P<0.05 vs control
Excerpt: L., and Ptak, W. "Contact and delayed hypersensitivity in the mouse I. Active sensitization and passive transfer," Immunology, 15, 405-416(1968)). In the following Evaluation Test 1, this experimental system was used to carry out an augmentation test of delayed hypersensitivity. Male mice of the ICR strain, weighing approximately 30 g, were used in groups of eight. These animals were sensitized by shaving the hair on the abdomen and applying thereto a 3% solution of picryl chloride in a 4:1 mixture of olive oil and acetone. Simultaneously with this sensitization, each of three compounds of the present invention was dissolved or suspended in physiological saline containing 0.2% carboxymethyl cellulose and administered orally to the animals in a dose of 50 mg per kg of body weight. A control group was treated solely with physiological saline containing 0.2% carboxymethyl cellulose. Seven days after sensitization, the animals were challenged by wrapping the tips of a forceps with pieces of felt, impregnating the felt with olive oil containing 1% picryl chloride, and pinching both ears of each animal. The thicknesses of the ears were measured before and 24 hours after the challenge, and the calculated present increase of ear thickness (the average of 16 measurements made of the ears of 8 animals) is shown in Table 1. […] The test results thus obtained were subjected to statistical analysis using the F.t test. The values marked with an asterisk (*) indicate that, when they were compared with the value of the control, the differences were significant at P<0.05.

[3] = Test for acute oral toxicity; design: species or system male mice of the ddY strain; conditions: mouse, in vivo, male ddY mice, 7 days observation, estimated
Protocol: Each of the three compounds used in Evaluation Tests 1 and 2 was dissolved or suspended in physiological saline and administered orally to a group of 5 male mice of the ddY strain. The LD50 value of the compound was estimated by observing these animals for 7 days after administration.

[4] = rat SD, 5 mg per kg subcutaneously, nine times before and after adjuvant, left hind paw volume, * = P<0.05 vs control

| SMILES | Percent inhibition of swelling as compared with control group (average of 16-20 days) [1, 4] | Percent increase of ear thickness [2] | LD50 at 168 h [3] | Percent inhibition of swelling as compared with control group (average of 16-20 days) ([1]; rat, in vivo, sc) |
| --- | --- | --- | --- | --- |
| CO/N=C(\C(=O)OC)c1csc(NC(=O)OCC(Cl)(Cl)Cl)n1 [drawing 11] | 39.5% |  |  |  |
| CO/N=C(\C(=O)OC)c1csc(NC(=O)OCC(Cl)(Cl)Cl)n1 [drawing 8] |  | 33.4% |  |  |
| CCC(=O)Nc1nc(/C(=N/OC)C(=O)OC)cs1 [drawing 13] | 22.3% |  |  |  |
| CCC(=O)Nc1nc(/C(=N/OC)C(=O)OC)cs1 [drawing 10] |  | 35.2% |  |  |
| c1ccc([C@H]2CN3CCSC3=N2)cc1 [Levamisole hydrochloride, reference compound] |  | 31.2% | 200 to 300 mg/kg | 19.8% |
